Results: PMC4618141, “Use of In Vitro and Predictive In Silico Models to Study the Inhibition of Cytochrome P4503A by Stilbenes” (PLoS ONE, 2015)

Target: CYP3A4 (Homo sapiens, UniProt P08684)
Assay: inhibition of testosterone metabolism in Caco-2/TC7 cells (HPLC)

Chain of CYP3A4 (P08684 2-503): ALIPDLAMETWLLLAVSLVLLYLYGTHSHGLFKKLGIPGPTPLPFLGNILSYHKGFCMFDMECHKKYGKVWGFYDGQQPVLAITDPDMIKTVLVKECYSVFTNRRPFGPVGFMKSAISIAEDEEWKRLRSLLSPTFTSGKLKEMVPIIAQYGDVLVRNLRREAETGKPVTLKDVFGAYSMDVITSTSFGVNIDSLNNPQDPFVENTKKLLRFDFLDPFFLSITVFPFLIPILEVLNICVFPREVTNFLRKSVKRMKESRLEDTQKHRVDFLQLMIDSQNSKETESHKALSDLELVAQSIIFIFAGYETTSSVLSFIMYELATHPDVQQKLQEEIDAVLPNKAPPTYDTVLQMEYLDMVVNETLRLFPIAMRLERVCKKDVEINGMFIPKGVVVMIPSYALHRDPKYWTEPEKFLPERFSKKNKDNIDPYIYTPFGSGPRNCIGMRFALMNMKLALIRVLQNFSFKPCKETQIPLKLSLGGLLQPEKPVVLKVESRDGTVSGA

Oc1ccc(/C=C/c2cc(O)cc(O)c2)cc1 [Resveratrol, trans-3,4′,5-trihydroxystilbene]
IC50: < 10 µM
